From US6227295A, “High temperature hydraulic fracturing fluid” (Schlumberger Technology Corporation, priority 1999, dated 2001)
“And” between values parts separate entries of the source, which are not always exact repeats. Identical values can stand only once.

Test: pH of organic amine stabilizers (Table 1, mostly determined experimentally)
Type: physicochemical
Conditions: pH in water, some from the literature
Text: The fluid also comprises an organic amine stabilizing agent that has a first pKa or a pH in water of at least about 9.5. The organic amine preferably has from 1-20 carbon atoms, more preferably 1-10 carbon atoms. In one particularly preferred embodiment, the organic amine has the formula: […]
Table 1 below lists a number of organic amines that can be used as stabilizers in the present invention. The pKa values in the table are from the literature; the pH values in the table were mostly determined experimentally, although some were taken from the literature.

Structure (SMILES) | pH
NCCCNCCNCCCN [BAPED, N,N'-bis(3-aminopropyl)ethylene-diamine] | 11.72
CCCCCCCCCCCCN [DDA, dodecylamine] | 10.22
CCN(O)CC [DHA, N,N-diethylhydroxylamine] | 11.06
CC(COCCCN)COCCCN [DPA-12, di-(gamma-aminopropylether) of 2-methyl-1,3-propane diol] | 11.41
NCCCOCCOCCCN [NDPA-10, di-(gamma-aminopropylether) of ethylene glycol] | 11.58
NCCCOCCCCOCCCN [NDPA-12, di-(gamma-aminopropylether) of 1,4-butane diol] | 11.55
NCCN(CCN)CCN [TAA, tris-(2-aminoethyl)amine] | 11.25
NCCNCCN [diethylenetriamine] | 11.42
NCCNCCNCCNCCN [tetraethylenepentamine] | 11.29

Test: Viscosity retention of CMHPG linear gels after aging at 325° F. (Example 1, Table 2)
Type: physicochemical
Conditions: 325° F.; TEPA 5 gpt, no secondary additive
Procedure: Aqueous polymer solutions were aged in an air oven at elevated temperatures, and their viscosity was measured before and after the aging. […] The base gels were made in 1 liter quantities, and stored in Nalgene-type plastic bottles. The viscosity of each batch of base gel was measured at 70° F. on a Contraves LS-30 viscometer to establish the baseline for that batch.

% of initial viscosity after 2 hrs. | Structure (SMILES)
93% and 63% | NCCNCCNCCNCCN [tetraethylenepentamine]

Same assay, conditions: TEPA 5 gpt, no secondary additive

pH (Comments) | Structure (SMILES)
11.50 | NCCNCCNCCNCCN [tetraethylenepentamine]

Test: Typical pH of fracturing fluid with TEPA as the stabilizer
Type: physicochemical
Conditions: TEPA used as the stabilizer
Text: where R1 is C1 -C4 alkyl and n is from 1-6. Preferably R1 is ethylene and n is 4. This preferred amine, tetraethylenepentamine (TEPA), is available from Dow Chemical.

pH of the fluid | Structure (SMILES)
about 10.8 | NCCNCCNCCNCCN [tetraethylenepentamine]

Test: not given
Conditions: cited from earlier work

Structure (SMILES) | pKa
CC(N)CN (stereo not drawn) [1,2-diaminopropane] | 9.8
NCCCN [1,3-diaminopropane] | 10.9
NCCCCN [1,4-diaminobutane] | 11.2
NCCN [ethylenediamine] | 10.7
NCCCCCCN [hexamethylenediamine] | 11.9
CCCCN [n-butylamine] | 10.8
CCCCCCCCCCN [n-decylamine] | 10.6
NCCCCN [tetramethylenediamine] | 10.7

Same assay, conditions: second value; cited from earlier work

Structure (SMILES) | pKa
CC(N)CN (stereo not drawn) [1,2-diaminopropane] | 6.6
NCCCN [1,3-diaminopropane] | 9.0
NCCCCN [1,4-diaminobutane] | 9.7
NCCN [ethylenediamine] | 7.6
